Test results as given in PubChem BioAssay (NCI).
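Five compound concentrations were applied to cells in 96-well plates for 48 hours; endpoints were derived by simple linear interpolation of the resulting dose-response curve. Here, GI50 denotes the concentration required for 50% inhibition of growth. TGI is the concentration that stops growth completely.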

What was measured:
Experiment in all cases: growth of human tumour cells (NCI), 48 h
[1] = tested on: NCI-H23 lung
[2] = tested on: NCI-H460 lung
[3] = tested on: NCI-H522 lung
[4] = tested on: NCI/ADR-RES ovarian
[5] = tested on: OVCAR-3 ovarian
[6] = tested on: OVCAR-4 ovarian
[7] = tested on: OVCAR-5 ovarian
[8] = tested on: OVCAR-8 ovarian
[9] = tested on: PC-3 prostate
[10] = tested on: RPMI-8226 leukemia
[11] = tested on: RXF 393 renal
[12] = tested on: SF-268 CNS
[13] = tested on: SF-295 CNS
[14] = tested on: SK-MEL-28 melanoma
[15] = tested on: SK-OV-3 ovarian
[16] = tested on: SN12C renal
[17] = tested on: SNB-19 CNS
[18] = tested on: SNB-75 CNS
[19] = tested on: SR leukemia
[20] = tested on: T-47D breast
[21] = tested on: TK-10 renal
[22] = tested on: U251 CNS
[23] = tested on: UACC-257 melanoma
[24] = tested on: UO-31 renal

`CC(=O)CCc1ccc(Oc2c3ccccc3nc3occc23)cc1` showed a TGI [1] of 39.3 µM, a GI50 [2] of 15.6 µM and a TGI [2] of 31.9 µM. The GI50 [3] was 26.9 µM, the TGI [3] was > 100 µM and the GI50 [4] was 15.4 µM. For the same compound, the TGI [4] was 45.6 µM, the GI50 [5] was 14 µM and the TGI [5] was 31.6 µM. For the same compound, the GI50 [6] was 37.6 µM, the TGI [6] was > 100 µM and the GI50 [7] was 19 µM. For the same compound, the TGI [7] was 38.9 µM, the GI50 [8] was 15.7 µM and the TGI [8] was 41.4 µM. It also gave a GI50 [9] of 14 µM, a TGI [9] of 41 µM and a GI50 [10] of 13.8 µM. It also gave a TGI [10] of 53.9 µM, a GI50 [11] of 14 µM and a TGI [11] of 39.1 µM. The GI50 [12] was 18.9 µM, the TGI [12] was 38.1 µM and the GI50 [13] was 15.7 µM. The TGI [13] was 40.9 µM, the GI50 [14] was 22.9 µM and the TGI [14] was 46.7 µM. The GI50 [15] was 17.8 µM, the TGI [15] was 41.4 µM and the GI50 [16] was 26.7 µM. For the same compound, the TGI [16] was 96.5 µM, the GI50 [17] was 19.5 µM and the TGI [17] was 48 µM. The GI50 [18] was 22.4 µM, the TGI [18] was 61 µM and the GI50 [19] was 19.7 µM. It also gave a TGI [19] of 57.3 µM, a GI50 [20] of 2.3 µM and a TGI [20] of 22.6 µM. The GI50 [21] was 15.4 µM, the TGI [21] was 43.9 µM and the GI50 [22] was 13.5 µM. For the same compound, the TGI [22] was 33.8 µM, the GI50 [23] was 14.4 µM and the TGI [23] was 28 µM. The GI50 [24] was 22.9 µM and the TGI [24] was > 100 µM.
